Laboratory results: ChEMBL document CHEMBL1201862, “PubChem BioAssay data set” (2004)
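96-well plates; 48 h exposure; 5 concentrations. Endpoints by linear interpolation between flanking doses. Not reached: highest tested concentration assigned. Here, GI50 denotes the concentration required for 50% inhibition of growth.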 Calls of active or inactive are those of the source. Rule as the data show it: active = GI50 up to about 1.1 µM and inactive = higher.

Assays:
Experiment in all cases: NCI tumour cell line growth inhibition, 48 h
786-0 = test system: 786-0
A498 = test system: A498
A549 = test system: A549
ACHN = test system: ACHN
BT-549 = test system: BT-549
CAKI-1 = test system: CAKI-1
CCRF-CEM = test system: CCRF-CEM
COLO 205 = test system: COLO 205
DU-145 = test system: DU-145
EKVX = test system: EKVX
HCC 2998 = test system: HCC 2998
HCT-116 = test system: HCT-116
HCT-15 = test system: HCT-15
HL-60 = test system: HL-60
HOP-62 = test system: HOP-62
HOP-92 = test system: HOP-92
HT-29 = test system: HT-29
Hs-578T = test system: Hs-578T
IGROV-1 = test system: IGROV-1
K562 = test system: K562
KM12 = test system: KM12
LOX IMVI = test system: LOX IMVI
M14 = test system: M14
MCF7 = test system: MCF7
MDA-MB-231 = test system: MDA-MB-231
MDA-MB-435 = test system: MDA-MB-435
MDA-N = test system: MDA-N
MOLT-4 = test system: MOLT-4
Malme-3M = test system: Malme-3M
NCI-H226 = test system: NCI-H226
NCI-H23 = test system: NCI-H23
NCI-H460 = test system: NCI-H460
NCI-H522 = test system: NCI-H522
NCI/ADR-RES = test system: NCI/ADR-RES
OVCAR-3 = test system: OVCAR-3
OVCAR-4 = test system: OVCAR-4
OVCAR-5 = test system: OVCAR-5
OVCAR-8 = test system: OVCAR-8
PC-3 = test system: PC-3
RPMI-8226 = test system: RPMI-8226
RXF 393 = test system: RXF 393
SF-268 = test system: SF-268
SF-295 = test system: SF-295
SF-539 = test system: SF-539
SK-MEL-28 = test system: SK-MEL-28
SK-MEL-2 = test system: SK-MEL-2
SK-MEL-5 = test system: SK-MEL-5
SK-OV-3 = test system: SK-OV-3
SN12C = test system: SN12C
SNB-19 = test system: SNB-19
SNB-75 = test system: SNB-75
SR = test system: SR
SW-620 = test system: SW-620
T47D = test system: T47D
TK-10 = test system: TK-10
U-251 = test system: U-251
UACC-257 = test system: UACC-257
UACC-62 = test system: UACC-62
UO-31 = test system: UO-31
DLD-1 = test system: DLD-1
DMS-273 = test system: DMS-273
KM-20L2 = test system: KM-20L2
LXFL 529 = test system: LXFL 529
M19-MEL = test system: M19-MEL

In the case of `O=c1cc(NNc2cccc3ccccc23)[nH]c(=O)[nH]1`, the GI50 (786-0) is reported as 6.12 µM (inactive), the GI50 (A498) is reported as 19.8 µM (inactive) and the GI50 (A549) is reported as 17.9 µM (inactive). For the same compound, the GI50 (ACHN) was 16.5 µM (inactive), the GI50 (BT-549) was 16.4 µM (inactive) and the GI50 (CAKI-1) was 14.7 µM (inactive). The GI50 (CCRF-CEM) was 10.1 µM (inactive), the GI50 (COLO 205) was 17.3 µM (inactive) and the GI50 (DU-145) was 15.3 µM (inactive). The GI50 (EKVX) was 14.6 µM (inactive), the GI50 (HCC 2998) was 20 µM (inactive) and the GI50 (HCT-116) was 17.4 µM (inactive). The GI50 (HCT-15) was 12.4 µM, the GI50 (HL-60) was 2.9 µM (inactive) and the GI50 (HOP-62) was 17 µM (inactive). The GI50 (HOP-92) was 17.4 µM (inactive), the GI50 (HT-29) was 17.6 µM (inactive) and the GI50 (Hs-578T) was 26.2 µM (inactive). The GI50 (IGROV-1) was 15.4 µM (inactive), the GI50 (K562) was 12.9 µM (inactive) and the GI50 (KM12) was 16.4 µM (inactive). For the same compound, the GI50 (LOX IMVI) was 13.6 µM (inactive), the GI50 (M14) was 15.9 µM (inactive) and the GI50 (MCF7) was 1.69 µM (inactive). The GI50 (MDA-MB-231) was 13.3 µM (inactive), the GI50 (MDA-MB-435) was 17.1 µM (inactive) and the GI50 (MDA-N) was 12.1 µM (inactive). For the same compound, the GI50 (MOLT-4) was 17.7 µM (inactive), the GI50 (Malme-3M) was 17.8 µM (inactive) and the GI50 (NCI-H226) was 13 µM (inactive). The GI50 (NCI-H23) was 15.3 µM (inactive), the GI50 (NCI-H460) was 18.8 µM (inactive) and the GI50 (NCI-H522) was 14.8 µM (inactive). The GI50 (NCI/ADR-RES) was 19.5 µM (inactive), the GI50 (OVCAR-3) was 14 µM (inactive) and the GI50 (OVCAR-4) was 17.2 µM (inactive). For the same compound, the GI50 (OVCAR-5) was 17.2 µM (inactive), the GI50 (OVCAR-8) was 18 µM (inactive) and the GI50 (PC-3) was 13.8 µM (inactive). The GI50 (RPMI-8226) was 5.53 µM (inactive), the GI50 (RXF 393) was 17.9 µM (inactive) and the GI50 (SF-268) was 16.4 µM (inactive). For the same compound, the GI50 (SF-295) was 17.5 µM (inactive), the GI50 (SF-539) was 15.6 µM (inactive) and the GI50 (SK-MEL-28) was 18.6 µM (inactive). For the same compound, the GI50 (SK-MEL-2) was 15 µM (inactive), the GI50 (SK-MEL-5) was 15.8 µM (inactive) and the GI50 (SK-OV-3) was 26.7 µM (inactive). For the same compound, the GI50 (SN12C) was 16.2 µM (inactive), the GI50 (SNB-19) was 14.3 µM (inactive) and the GI50 (SNB-75) was 16.6 µM (inactive). The GI50 (SR) was 2.61 µM (inactive), the GI50 (SW-620) was 20 µM (inactive) and the GI50 (T47D) was 10.2 µM (inactive). For the same compound, the GI50 (TK-10) was 19.7 µM (inactive), the GI50 (U-251) was 14.6 µM (inactive) and the GI50 (UACC-257) was 15.7 µM (inactive). For the same compound, the GI50 (UACC-62) was 17.5 µM (inactive) and the GI50 (UO-31) was 16.3 µM (inactive).
`Cc1ccc(C(N)=O)cc1/N=N/N(C)C` was tested, and the GI50 (786-0) was > 100 µM (inactive), the GI50 (A549) was > 100 µM (inactive) and the GI50 (ACHN) was > 100 µM (inactive). The GI50 (CAKI-1) was > 100 µM (inactive), the GI50 (COLO 205) was > 100 µM (inactive) and the GI50 (DLD-1) was > 100 µM (inactive). The GI50 (DMS-273) was > 100 µM (inactive), the GI50 (EKVX) was > 100 µM (inactive) and the GI50 (HCC 2998) was > 100 µM (inactive). For the same compound, the GI50 (HCT-15) was over 100 µM, the GI50 (HOP-62) was > 100 µM (inactive) and the GI50 (HOP-92) was > 100 µM (inactive). The GI50 (HT-29) was > 100 µM (inactive), the GI50 (IGROV-1) was > 100 µM (inactive) and the GI50 (KM-20L2) was > 100 µM (inactive). For the same compound, the GI50 (KM12) was > 100 µM (inactive), the GI50 (LOX IMVI) was > 100 µM (inactive) and the GI50 (LXFL 529) was > 100 µM (inactive). The GI50 (M14) was > 100 µM (inactive), the GI50 (M19-MEL) was > 100 µM (inactive) and the GI50 (NCI-H23) was > 100 µM (inactive). For the same compound, the GI50 (NCI-H460) was > 100 µM (inactive), the GI50 (NCI-H522) was > 100 µM (inactive) and the GI50 (OVCAR-3) was > 100 µM (inactive). For the same compound, the GI50 (OVCAR-4) was > 100 µM (inactive), the GI50 (OVCAR-8) was > 100 µM (inactive) and the GI50 (SF-268) was > 100 µM (inactive). For the same compound, the GI50 (SF-295) was > 100 µM (inactive), the GI50 (SK-MEL-28) was > 100 µM (inactive) and the GI50 (SK-MEL-2) was > 100 µM (inactive). For the same compound, the GI50 (SK-MEL-5) was > 100 µM (inactive), the GI50 (SK-OV-3) was > 100 µM (inactive) and the GI50 (SN12C) was > 100 µM (inactive). For the same compound, the GI50 (SNB-19) was > 100 µM (inactive), the GI50 (SW-620) was > 100 µM (inactive) and the GI50 (TK-10) was > 100 µM (inactive). For the same compound, the GI50 (U-251) was > 100 µM (inactive), the GI50 (UACC-257) was > 100 µM (inactive) and the GI50 (UACC-62) was > 100 µM (inactive). The GI50 (UO-31) was > 100 µM (inactive).
